Measured values published in patent US10947284B2, “Fusion molecules” (Pieris Pharmaceuticals GMBH, priority 2015, dated 2021).
pIC50, pKd: −log10 of the molar value. Starred links: 1 amine or outer side, 2 acyl side, 3 side chain; linkers in the order of their positions; H or OH if unused. Non-standard residues stand in square brackets, D forms with d. Residues, ends and D or L forms follow the SMILES beside them. *: point of attachment. X1 = O=C([C@@H]1CCNc2c(N[*:1])cc3cc(O)c(O)cc3[n+]21)[*:2]; dOrn(N5-OH,N5-CHO) = N[C@H](CCCN(O)C=O)C(=O)O; Butanoyl(2-oxo,4-COOH) = O=C(O)CCC(=O)C(=O)*; d(aThr) = C[C@@H](O)[C@@H](N)C(=O)O; X2 = O=C1[C@@H](N*)CCCN1[O-]; X3 = O=C1[C@@H](N*)CCCN1O; Orn = NCCC[C@H](N)C(=O)O

Assays:
[1] = biological target: T1, hNGAL (human lipocalin 2, parent wild type SEQ ID NO: 1) mutein SEQ ID NO: 26 (Homo sapiens, UniProt P80188, A60E/C107S/D97N/E64D/I61V/K145N/K154W/K93N/L123V/L56V/L90R/N116K/Q48H/Q69G/R101E/R92H/S147K/S88E/W99S/Y120N/Y126M/Y152G/Y72P); assay: Solution binding ELISA
T1 construct: made in house; host or cells: E. coli
T1 sequence (P80188 other isoform, or with tags, fused parts or gaps with the stated changes): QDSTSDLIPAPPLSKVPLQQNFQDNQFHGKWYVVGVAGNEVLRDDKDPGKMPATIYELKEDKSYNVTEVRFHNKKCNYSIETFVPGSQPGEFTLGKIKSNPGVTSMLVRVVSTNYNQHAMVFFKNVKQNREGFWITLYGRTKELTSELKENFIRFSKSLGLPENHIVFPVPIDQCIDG
Description: (§5) The residual supernatants were discarded and 20 μl HRP-labeled anti-hNGAL antibody was added at a predetermined optimal concentration in PBS-T/BSA and incubated for 1 h at RT. […] After washing, 20 μl fluorogenic HRP substrate (QuantaBlu, Thermo) was added to each well, and the reaction was allowed to proceed for 15 to 60 minutes. The fluorescence intensity of every well on the plate was read using a fluorescence microplate reader (Tecan or Molecular Devices). […] Curve fitting was performed using GraphPad Prism 4 software.

[2] = biological target: T2, hNGAL (human lipocalin 2, parent wild type SEQ ID NO: 1) mutein SEQ ID NO: 27 (Homo sapiens, UniProt P80188, A60T/C107S/D97N/E64D/I61V/K154W/K93N/L123Q/L56V/L90R/Q48H/Q69G/R101E/R92H/S147K/S88E/W99S/Y126M/Y152V/Y72P); assay: Solution binding ELISA
T2 construct: made in house; host or cells: E. coli
T2 sequence (P80188 other isoform, or with tags, fused parts or gaps with the stated changes): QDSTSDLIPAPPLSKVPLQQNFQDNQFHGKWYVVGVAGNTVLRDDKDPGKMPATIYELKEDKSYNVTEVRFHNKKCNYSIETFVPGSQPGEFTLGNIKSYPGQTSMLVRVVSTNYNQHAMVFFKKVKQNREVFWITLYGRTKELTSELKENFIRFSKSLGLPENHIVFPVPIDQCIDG
Description: as §5

[3] = biological target: T3, hNGAL (human lipocalin 2, parent wild type SEQ ID NO: 1) mutein SEQ ID NO: 29 (Homo sapiens, UniProt P80188, A60Q/C107S/D97N/E64D/I61V/K154W/K93N/L123H/L56V/L90R/Q48H/Q69G/R101E/R92H/S147K/S88E/Y120N/Y126M/Y152G/Y72P); assay: Solution binding ELISA
T3 construct: made in house; host or cells: E. coli
T3 sequence (P80188 other isoform, or with tags, fused parts or gaps with the stated changes): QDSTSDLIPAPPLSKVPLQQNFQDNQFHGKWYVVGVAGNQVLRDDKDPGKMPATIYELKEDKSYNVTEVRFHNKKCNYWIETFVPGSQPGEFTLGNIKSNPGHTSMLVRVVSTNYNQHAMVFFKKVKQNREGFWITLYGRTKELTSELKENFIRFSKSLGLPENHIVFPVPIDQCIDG
Description: as §5

[4] = biological target: T4, Fusion molecule SEQ ID NO: 134 (hNGAL muteins SEQ ID NOs: 36, 16, 53 and 62) (Homo sapiens, UniProt P80188, A60T/C107S/D97H, form not given/K145I/K154W/K93R/L123T/L56V/L90R/N85D/Q69G/R101D/R92I/S147R/S88D/T74A/W99Y/Y126Q/Y152I/Y72N); assay: Solution binding ELISA; settings: binding to target in solution, tracer 0.1 nM, Table 11
T4 construct: made in house
T4 sequence (P80188 with tags, fused parts or gaps with the stated changes, form open): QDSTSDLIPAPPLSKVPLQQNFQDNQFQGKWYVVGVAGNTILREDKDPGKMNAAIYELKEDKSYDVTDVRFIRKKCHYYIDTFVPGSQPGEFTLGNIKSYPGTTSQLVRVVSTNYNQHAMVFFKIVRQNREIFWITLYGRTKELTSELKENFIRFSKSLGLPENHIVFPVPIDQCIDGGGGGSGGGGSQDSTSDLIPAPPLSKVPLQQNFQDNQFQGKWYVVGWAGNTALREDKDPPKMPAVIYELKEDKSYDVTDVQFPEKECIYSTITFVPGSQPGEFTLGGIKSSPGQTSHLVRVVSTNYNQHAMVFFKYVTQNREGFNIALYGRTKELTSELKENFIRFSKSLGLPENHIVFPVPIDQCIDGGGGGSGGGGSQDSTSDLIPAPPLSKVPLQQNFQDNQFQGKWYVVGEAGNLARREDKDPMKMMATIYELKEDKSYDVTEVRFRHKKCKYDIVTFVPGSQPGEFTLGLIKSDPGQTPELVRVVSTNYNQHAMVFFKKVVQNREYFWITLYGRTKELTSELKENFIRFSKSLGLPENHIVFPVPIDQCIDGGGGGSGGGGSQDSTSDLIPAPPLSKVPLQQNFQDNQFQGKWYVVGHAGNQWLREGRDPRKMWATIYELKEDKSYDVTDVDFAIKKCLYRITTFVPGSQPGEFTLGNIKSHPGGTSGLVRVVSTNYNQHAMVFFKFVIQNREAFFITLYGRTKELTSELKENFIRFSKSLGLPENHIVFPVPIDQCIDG

[5] = biological target: T5, Fusion molecule SEQ ID NO: 134 (hNGAL muteins SEQ ID NOs: 36, 16, 53 and 62) (Homo sapiens, UniProt P80188, A60T/C107S/D97H, form not given/K145I/K154W/K93R/L123T/L56V/L90R/N85D/Q69G/R101D/R92I/S147R/S88D/T74A/W99Y/Y126Q/Y152I/Y72N); assay: Surface plasmon resonance (Biacore T200); format: binding; settings: Biacore, 25° C., Table 13
T5 construct: made in house; host or cells: HEK293
T5 sequence (P80188 with tags, fused parts or gaps with the stated changes, form open): as above

[6] = biological target: T6, hNGAL (human lipocalin 2, parent wild type SEQ ID NO: 1) mutein SEQ ID NO: 30 (Homo sapiens, UniProt P80188, A60T/C107S/D97H/K145I/K154W/K93F/L123M/L56V/L90R/Q48H/Q69G/R101D/R92I/S147R/S88D/W99Y/Y126Q/Y152I/Y72N); assay: Solution binding ELISA
T6 construct: made in house; host or cells: E. coli
T6 sequence (P80188 other isoform, or with tags, fused parts or gaps with the stated changes): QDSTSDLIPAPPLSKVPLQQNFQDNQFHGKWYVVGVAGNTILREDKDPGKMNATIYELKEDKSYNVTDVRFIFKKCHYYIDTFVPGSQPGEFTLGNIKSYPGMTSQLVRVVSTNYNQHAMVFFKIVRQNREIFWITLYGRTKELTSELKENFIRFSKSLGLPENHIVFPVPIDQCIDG
Description: as §5

[7] = biological target: T7, hNGAL (human lipocalin 2, parent wild type SEQ ID NO: 1) mutein SEQ ID NO: 31 (Homo sapiens, UniProt P80188, A60T/C107S/D97H/K145I/K154W/K93R/L123T/L56V/L90R/Q48H/Q69G/R101D/R92I/S147R/S88D/W99Y/Y126Q/Y152I/Y72N); assay: Solution binding ELISA
T7 construct: made in house; host or cells: E. coli
T7 sequence (P80188 other isoform, or with tags, fused parts or gaps with the stated changes): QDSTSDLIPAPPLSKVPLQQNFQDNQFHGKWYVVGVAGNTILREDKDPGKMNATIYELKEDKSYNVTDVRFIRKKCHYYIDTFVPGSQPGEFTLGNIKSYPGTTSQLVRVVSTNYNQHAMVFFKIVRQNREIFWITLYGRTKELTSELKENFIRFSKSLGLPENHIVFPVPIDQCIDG
Description: as §5

[8] = biological target: T8, hNGAL (human lipocalin 2, parent wild type SEQ ID NO: 1) mutein SEQ ID NO: 34 (Homo sapiens, UniProt P80188, A60T/C107S/D97H/K145I/K154W/K93R/L123T/L56V/L90R/N85D/Q48H/Q69G/R101D/R92I/S147R/S88D/T74A/W99Y/Y126Q/Y152I/Y72N); assay: Solution binding ELISA; settings: Example 5
T8 construct: made in house; host or cells: E. coli
T8 sequence (P80188 other isoform, or with tags, fused parts or gaps with the stated changes): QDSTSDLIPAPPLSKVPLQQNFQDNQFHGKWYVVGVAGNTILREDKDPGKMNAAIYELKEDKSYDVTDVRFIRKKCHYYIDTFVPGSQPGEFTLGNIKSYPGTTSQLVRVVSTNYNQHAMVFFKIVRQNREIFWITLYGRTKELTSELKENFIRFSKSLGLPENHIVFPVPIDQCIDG
Description: as §5

[9] = biological target: T9, hNGAL (human lipocalin 2, parent wild type SEQ ID NO: 1) mutein SEQ ID NO: 36 (Homo sapiens, UniProt P80188, A60T/C107S/D97H/K145I/K154W/K93R/L123T/L56V/L90R/N85D/Q69G/R101D/R92I/S147R/S88D/T74A/W99Y/Y126Q/Y152I/Y72N); assay: Surface plasmon resonance (Biacore T200); format: binding; settings: SPR, 25° C., Table 2B
T9 construct: made in house; host or cells: E. coli
T9 sequence (P80188 21-198 with the stated changes): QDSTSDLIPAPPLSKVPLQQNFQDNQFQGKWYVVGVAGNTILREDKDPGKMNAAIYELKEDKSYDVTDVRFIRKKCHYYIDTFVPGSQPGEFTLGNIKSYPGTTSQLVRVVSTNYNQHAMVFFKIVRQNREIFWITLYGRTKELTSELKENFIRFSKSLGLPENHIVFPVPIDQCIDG
Description: (§6) In a Surface Plasmon Resonance (SPR) based assay a Biacore T200 instrument (GE Healthcare) was used to measure the binding affinity of muteins to pyoverdine I succinyl, -succinamide, -α-ketoglutaryl with complexed iron ion or to pyoverdine II succinyl, -succinamide, -α-ketoglutaryl with complexed iron ion or to pyoverdine III succinyl, -succinamide, -α-ketoglutaryl with complexed iron ion. Muteins selected for binding to pyoverdines and negative control (SEQ ID NO: 64) were biotinylated for 2 h at room temperature applying an appropriate excess of EZ-Link NHS-PEG4-Biotin (Thermo, Cat #21329) followed by separation of non-reacted Biotin using a Zebra Spin Desalting Plate (Thermo, Cat #21329) according to the manufactures instructions.
In the SPR affinity assay, biotinylated muteins and negative control were captured on a sensor chip CAP using the Biotin CAPture Kit (GE Healthcare): Sensor Chip CAP is pre-immobilized with an ssDNA oligo. Undiluted Biotin CAPture Reagent (streptavidin conjugated with the complementary ss-DNA oligo) was applied at a flow rate of 2 μl/min for 300 s. Subsequently, 1 μg/ml to 100 μg/mL of biotinylated muteins or negative control were applied for 300 s at a flow rate of 5 μl/min. […]
Applying a flow rate of 30 μl/min, a single cycle or multi cycle kinetics approach was used with a sample contact time of 120-180 s and a dissociation time of 900-2400 s. […] After ligand immobilization, for analysis using single cycle kinetics all 4-5 concentrations of Pvd were applied consecutively in ascending order before the dissociation was monitored. […] Data were evaluated with Biacore T200 Evaluation software (V 1.0). […]
In the SPR affinity assay, biotinylated muteins and negative control were captured on a sensor chip CAP using the Biotin CAPture Kit (GE Healthcare), wherein the Sensor Chip CAP is pre-immobilized with an ssDNA oligo. […] After ligand immobilization, the four concentrations of Pvd were applied consecutively in ascending order before the dissociation was monitored. […] Data were evaluated with Biacore T200 Evaluation software (V 1.0). […]

[10] = biological target: T10, hNGAL (human lipocalin 2, parent wild type SEQ ID NO: 1) mutein SEQ ID NO: 19 (Homo sapiens, UniProt P80188, A60E/C107S/D97N/I61V/K154W/K93N/L123Q/L56V/L90R/Q48H/Q69G/R101E/R92H/S147K/S88E/W99S/Y120N/Y126M/Y152G/Y72P); assay: Solution binding ELISA
T10 construct: made in house; host or cells: E. coli
T10 sequence (P80188 other isoform, or with tags, fused parts or gaps with the stated changes): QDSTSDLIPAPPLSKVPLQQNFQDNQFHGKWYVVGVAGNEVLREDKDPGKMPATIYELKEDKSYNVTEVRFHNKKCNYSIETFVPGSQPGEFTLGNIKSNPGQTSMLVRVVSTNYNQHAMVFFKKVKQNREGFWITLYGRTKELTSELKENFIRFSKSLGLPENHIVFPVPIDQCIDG
Description: as §5

[11] = biological target: T11, hNGAL (human lipocalin 2, parent wild type SEQ ID NO: 1) mutein SEQ ID NO: 28 (Homo sapiens, UniProt P80188, A60T/C107S/D97N/E64D/I61V/K154W/L123Q/L56V/L90R/N116K/Q48H/Q69G/R101E/R92H/S147K/S88E/W99F/Y120H/Y126M/Y152A/Y72P); assay: Solution binding ELISA
T11 construct: made in house; host or cells: E. coli
T11 sequence (P80188 other isoform, or with tags, fused parts or gaps with the stated changes): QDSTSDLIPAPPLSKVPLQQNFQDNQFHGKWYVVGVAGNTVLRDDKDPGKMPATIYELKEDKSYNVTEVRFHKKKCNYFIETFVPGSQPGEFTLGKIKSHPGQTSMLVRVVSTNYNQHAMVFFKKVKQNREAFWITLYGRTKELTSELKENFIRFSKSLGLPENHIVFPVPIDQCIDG
Description: as §5

[12] = biological target: T12, hNGAL (human lipocalin 2, parent wild type SEQ ID NO: 1) mutein SEQ ID NO: 20 (Homo sapiens, UniProt P80188, A60T/C107S/D97H/K145I/K154W/K93M/L123T/L90R/N116I/Q48H/Q69G/R101E/R92I/S147R/S88D/W99Y/Y120N/Y126Q/Y152M/Y72N); settings: solution binding ELISA
T12 construct: made in house; host or cells: E. coli
T12 sequence (P80188 other isoform, or with tags, fused parts or gaps with the stated changes): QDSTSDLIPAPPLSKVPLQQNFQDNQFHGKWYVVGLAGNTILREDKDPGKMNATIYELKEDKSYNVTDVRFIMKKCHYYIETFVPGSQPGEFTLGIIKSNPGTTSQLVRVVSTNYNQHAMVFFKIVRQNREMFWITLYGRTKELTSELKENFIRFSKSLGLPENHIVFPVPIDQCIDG
Description: as §5

[13] = biological target: hNGAL muteins from affinity optimization of SEQ ID NO: 55 (Homo sapiens, UniProt P80188); assay: Solution binding ELISA
Chain of hNGAL muteins from affinity optimization of SEQ ID NO: 55 (P80188 21-198, stated change not applied): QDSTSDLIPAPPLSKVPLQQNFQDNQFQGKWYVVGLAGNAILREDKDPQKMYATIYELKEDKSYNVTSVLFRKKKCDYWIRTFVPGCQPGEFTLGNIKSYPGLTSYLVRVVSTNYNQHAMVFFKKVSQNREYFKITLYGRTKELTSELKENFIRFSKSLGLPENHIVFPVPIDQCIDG
Description: (§1) Solution binding of muteins was assayed by a “Solution binding ELISA”, the principle of which was as follows: a constant concentration of the tested mutein was incubated with variable concentrations of ligands (Pvd I s, sa, αKG+/−Fe/Pvd II s, sa, αKG+/−Fe/Pvd III s, sa, αKG+/−Fe/Pch+/−Fe) for 1 h. After this pre-incubation in solution, an aliquot of the mutein/ligand mixture was transferred to an ELISA plate with biotinylated Pvd I s (+Fe), Pvd II s (+Fe), Pvd III s (+Fe) or Pch immobilized via Neutravidin to measure the remaining concentration of free muteins. The concentration of free (non ligand-bound) muteins was determined via a quantitative ELISA setup.
(§2) In detail, a 384-well plate suitable for fluorescence measurements (Greiner FLUOTRAC™ 600, black flat bottom, high-binding) was coated with 20 μl of Neutravidin at a concentration of 5 μg/ml in PBS overnight at 4 C. After washing, the Neutravidin-coated wells were blocked with 100 μl blocking buffer containing 0.1% Tween 20 and 2% BSA (PBS-T/BSA) for 1 h at room temperature.
(§3) A fixed concentration of muteins was incubated in solution with varying concentrations of ligand (Pvd I s, sa, αKG+/−Fe/Pvd II s, sa, αKG+/−Fe/Pvd III s, sa, αKG+/−Fe/Pch+/−Fe), using a suitable starting concentration which was serially diluted at a 1:3 ratio down to the picomolar range in PBS-T/BSA. […] To allow for transformation of ELISA readout results into absolute free mutein concentrations, a standard curve containing varying concentrations of muteins was prepared in PBS-T/BSA and incubated for 20 min on the same ELISA plate as well.
(§4) The residual supernatants were discarded and 20 μl HRP-labeled anti-hNGAL antibody was added at a predetermined optimal concentration in PBS-T/BSA and incubated for 1 h at RT. […] The fluorescence intensity of every well on the plate was read using a fluorescence microplate reader (Tecan or Molecular Devices). To evaluate the data, free mutein concentration, c(mutein)free, was calculated based on the standard curve results, and plotted versus ligand concentration, c(Ligand). […]

[14] = biological target: hNGAL muteins from affinity optimization of SEQ ID NO: 56 (Homo sapiens, UniProt P80188); assay: Solution binding ELISA
Chain of hNGAL muteins from affinity optimization of SEQ ID NO: 56 (P80188 21-198, stated change not applied): as above
Description: as §1, §2, §3, §4

[15] = biological target: T13, hNGAL (human lipocalin 2, parent wild type SEQ ID NO: 1) mutein SEQ ID NO: 57 (Homo sapiens, UniProt P80188, A60Y/C107S/D97R/I61W/K145L/K154N/K93R/L123Q/L56V/L90R/N116P/Q48H/Q69A/R101W/R92W/S147R/S88D/W99D/Y120E/Y126R/Y152A); assay: Solution binding ELISA
T13 construct: made in house; host or cells: E. coli
T13 sequence (P80188 21-198 with the stated changes): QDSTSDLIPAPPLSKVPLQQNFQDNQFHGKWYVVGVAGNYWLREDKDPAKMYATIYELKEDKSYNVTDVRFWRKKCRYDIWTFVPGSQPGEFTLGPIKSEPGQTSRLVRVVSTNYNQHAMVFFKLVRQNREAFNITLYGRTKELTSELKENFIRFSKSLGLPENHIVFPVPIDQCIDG
Description: as §5

[16] = biological target: T14, hNGAL (human lipocalin 2, parent wild type SEQ ID NO: 1) mutein SEQ ID NO: 56 (Homo sapiens, UniProt P80188, A60F/C107S/D97A/I61H/K145G/K154V/K93A/L123M/L56M/L90P/N116A/Q48H/Q69S/R101I/R92W/S147W/S88H/W99K/Y120G/Y126W/Y152T/Y72P); assay: Solution binding ELISA
T14 construct: made in house; host or cells: E. coli
T14 sequence (P80188 21-198 with the stated changes): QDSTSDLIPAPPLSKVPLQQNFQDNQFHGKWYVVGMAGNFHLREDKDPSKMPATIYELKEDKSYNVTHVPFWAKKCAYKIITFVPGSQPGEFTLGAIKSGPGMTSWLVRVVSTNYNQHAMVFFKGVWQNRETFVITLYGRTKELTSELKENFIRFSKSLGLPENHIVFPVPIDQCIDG
Description: as §5

[17] = biological target: lipocalin negative control SEQ ID NO: 64 (Homo sapiens, UniProt P80188, C107S/Q48H); assay: Surface plasmon resonance (Biacore T200); format: binding
Chain of lipocalin negative control SEQ ID NO: 64 (P80188 21-198 Q48H/C107S): as the sequence (P80188 21-198, stated change not applied) above, with Q28H, C87S counted along it
Description: as §6
In the SPR affinity assay, biotinylated muteins and negative control were captured on a sensor chip CAP using the Biotin CAPture Kit (GE Healthcare): Sensor Chip CAP is pre-immobilized with an ssDNA oligo. Undiluted Biotin CAPture Reagent (streptavidin conjugated with the complementary ss-DNA oligo) was applied at a flow rate of 2 μl/min for 300 s. Subsequently, 1 μg/ml to 100 μg/mL of biotinylated muteins or negative control were applied for 300 s at a flow rate of 5 μl/min. The reference channel was loaded with Biotin CAPture Reagent only.
Applying a flow rate of 30 μl/min, a single cycle or multi cycle kinetics approach was used with a sample contact time of 120-180 s and a dissociation time of 900-2400 s. […] After ligand immobilization, for analysis using single cycle kinetics all 4-5 concentrations of Pvd were applied consecutively in ascending order before the dissociation was monitored. For analysis using multi cycle kinetics 4 dilutions of Pvd were applied, each followed a dissociation phase. All measurements were performed at 25° C. […] Data were evaluated with Biacore T200 Evaluation software (V 1.0). Double referencing was used. A 1:1 Binding model was used to fit the raw data.
(§7) Subsequently, 5 μg/mL of mutein or the negative control solution in 10 mM acetate pH 4.0 was applied at a flow rate of 10 μl/min until a high immobilization level of approximately 2000 RU was achieved. Residual activated groups were quenched with ethanolamine. The reference channels were treated with EDC/NHS following ethanolamine (blank immobilization).
In the SPR affinity assay, biotinylated muteins and negative control were captured on a sensor chip CAP using the Biotin CAPture Kit (GE Healthcare), wherein the Sensor Chip CAP is pre-immobilized with an ssDNA oligo. Undiluted Biotin CAPture Reagent (streptavidin conjugated with the complementary ss-DNA oligo) was applied at a flow rate of 2 μl/min for 300 s. Subsequently, 20 μg/ml to 100 μg/mL of biotinylated muteins or fusion molecule negative control were applied for 300 s at a flow rate of 5 μl/min. The reference channel was loaded with Biotin CAPture Reagent only. To determine the binding affinity, four dilutions of the respective Pvd were prepared in HBS-EP+ buffer (GE Healthcare) and applied to the chip surface. Applying a flow rate of 30 μl/min, a single cycle kinetics approach was used with a sample contact time of 180 s and a dissociation time of 1800-2400 s. […] After ligand immobilization, the four concentrations of Pvd were applied consecutively in ascending order before the dissociation was monitored. All measurements were performed at 25° C. […] Data were evaluated with Biacore T200 Evaluation software (V 1.0). Double referencing was preformed. A 1:1 binding model was used to fit the raw data.

[18] = biological target: T15, hNGAL (human lipocalin 2, parent wild type SEQ ID NO: 1) mutein SEQ ID NO: 62 (Homo sapiens, UniProt P80188, A60Q/C107S/D65G/D97L/I61W/K145F/K154F/K66R/K93I/L123G/L56H/L90D/N85D/Q69R/R101T/R92A/S147I/S88D/W99R/Y120H/Y126G/Y152A/Y72W); assay: Surface plasmon resonance (Biacore T200), CM5 chip; format: binding; settings: SPR, high concentrations (≥1 μM)
T15 construct: made in house
T15 sequence (P80188 21-198 with the stated changes): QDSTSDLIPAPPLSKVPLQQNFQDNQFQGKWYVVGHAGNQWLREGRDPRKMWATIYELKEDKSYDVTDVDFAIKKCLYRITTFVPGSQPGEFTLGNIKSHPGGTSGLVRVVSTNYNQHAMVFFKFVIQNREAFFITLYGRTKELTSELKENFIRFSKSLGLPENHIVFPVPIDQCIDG
Description: as §7
The binding assay was carried out with a contact time of 180 s, dissociation times of 1200-1800 s and applying a flow rate of 30 μl/min. Measurements were performed at 25° C. Regeneration of the immobilized mutein surface was achieved by three consecutive injections of 10 mM Gly-HCl pH 1.5 (120 s) followed by an extra wash with running buffer and a stabilization period. Data were evaluated with Biacore T200 Evaluation software (V 1.0). Double referencing was used. The 1:1 Binding model was used to fit the raw data.
Subsequently, 5 μg/mL of mutein or the negative control solution in 10 mM acetate pH 4.0 was applied at a flow rate of 10 μl/min until a high immobilization level of approximately 2000 RU was achieved. Residual activated groups were quenched with ethanolamine. The reference channels were treated with EDC/NHS following ethanolamine (blank immobilization). […] The binding assay was carried out with a contact time of 180 s, dissociation times of 1500-1800 s and applying a flow rate of 30 μl/min. Measurements were performed at 25° C. Regeneration of the immobilized mutein surface was achieved by three consecutive injections of 10 mM Gly-HCl pH 1.5 (120 s) followed by an extra wash with running buffer and a stabilization period. Data were evaluated with Biacore T200 Evaluation software (V 1.0). Double referencing was used. The 1:1 Binding model was used to fit the raw data.

[19] = biological target: hNGAL (human lipocalin 2), wild type, SEQ ID NO: 1 (Homo sapiens, UniProt P80188); settings: cited from earlier work
Chain of hNGAL (human lipocalin 2), wild type, SEQ ID NO: 1 (P80188 21-198): as the sequence (P80188 21-198, stated change not applied) above

| Compound | pIC50 [1] | pIC50 [2] | pIC50 [3] | pIC50 [4] | pKd [5] | pIC50 [6] | pIC50 [7] | pIC50 [8] | pIC50 [10] | pIC50 [11] | pIC50 [12] | affinity (in words) [15] | affinity (in words) [16] | other results |
| --- | --- | --- | --- | --- | --- | --- | --- | --- | --- | --- | --- | --- | --- | --- |
| C[C@@H](O)[C@@H](NC(=O)CNC(=O)[C@H](CCCN)NC(=O)[C@@H](CCCN([O-])C=O)NC(=O)[C@@H](CO)NC(=O)[C@@H]1CCNc2c(NC(=O)C(=O)CCC(=O)O)cc3cc([O-])c([O-])cc3[n+]21)C(=O)N[C@@H](CO)C(=O)N[C@H]1CCCN([O-])C1=O.[Fe+3] [Pvd II aKG (+Fe), Pvd type II α-ketoglutaryl] ({Butanoyl(2-oxo,4-COOH)}-[X1][dS][dOrn(N5-OH,N5-CHO)][Orn]G[d(aThr)]S-X2) | 8.89 | 8.71 | 8.72 | 9.06 | 8.92 | 8.52 | 8.96 | 8.80 | 7.68 | 8.65 | 7.07 |  |  | pKd [9]: 8.71; koff [9]: 5.62e-05 s⁻¹; kon [9]: 28600 M⁻¹ s⁻¹ |
| CN1C([C@H]2CSC(c3ccccc3O)=N2)SC[C@H]1C(=O)O.[Fe+3] (stereo partly drawn) [pch (+Fe), pyochelin] |  |  |  |  |  |  |  |  |  |  |  | two- to three digit nM affinity | two- to three digit nM affinity | affinity (in words) [13]: single digit nM affinity; affinity (in words) [14]: no or weak affinity; binding ([17]; SPR, analyte at 200 nM): absence of binding |
| pyoverdine |  |  |  |  |  |  |  |  |  |  |  |  |  | binding [18]: absence of binding; binding ([17]; Biacore, Example 18): did not show binding; binding [19]: does not bind |
| CN1C([C@H]2CSC(c3ccccc3O)=N2)SC[C@H]1C(=O)O (stereo partly drawn) [pch (−Fe), pyochelin] |  |  |  |  |  |  |  |  |  |  |  | weak affinity or not at all | weak affinity or not at all | improved affinity ([13]; compared with SEQ ID NO: 55): more than 75 fold |
| C[C@@H](O)[C@@H](NC(=O)CNC(=O)[C@H](CCCN)NC(=O)[C@@H](CCCN(O)C=O)NC(=O)[C@@H](CO)NC(=O)[C@@H]1CCNc2c(NC(=O)C(=O)CCC(=O)O)cc3cc(O)c(O)cc3[n+]21)C(=O)N[C@@H](CO)C(=O)N[C@H]1CCCN(O)C1=O [Pvd II aKG (−Fe), Pvd type II α-ketoglutaryl] ({Butanoyl(2-oxo,4-COOH)}-[X1][dS][dOrn(N5-OH,N5-CHO)][Orn]G[d(aThr)]S-X3) | 9.12 | 8.85 | 8.80 | 9.09 | 8.49 | 8.55 | 9.19 | 8.92 | 7.47 | 8.78 | 7.05 |  |  |  |
